Source: US8952024B2, “Herbicidal pyrimidone derivatives” (E I du Pont de Nemours and Company, priority 2009, dated 2015)

Tests used:
Assay type in all cases: in vivo
[1] = tested on: windgrass (Apera spica-venti); experiment: Test B postemergence plant response
Summary of the method: (§1)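 Visual ratings from 0 (no effect) to 100 (complete control), made against controls 13–15 days after treatment, kept in a greenhouse. Compounds were applied postemergence to potted plants at the 1- to 4-leaf stage (2–18 cm).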

[2] = tested on: canarygrass (Phalaris minor); experiment: Test B postemergence plant response
Summary of the method: as §1

[3] = tested on: chickweed (Stellaria media); experiment: Test B postemergence plant response
Summary of the method: as §1

[4] = tested on: bermudagrass (Cynodon dactylon); experiment: Test B pre-/postemergence plant response
Summary of the method: (§2)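 Greenhouse herbicide screen. Pre- and postemergence (1- to 4-leaf) spray of compound in solvent/surfactant mixture; loam–sand soil for pre, peat/vermiculite medium for post. Visual control rating 0–100 at 13 to 15 days after treatment.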

[5] = tested on: morningglory (Ipomoea coccinea); experiment: Test B pre-/postemergence plant response
Summary of the method: as §2

[6] = tested on: giant foxtail (Setaria faberii); experiment: Test B pre-/postemergence plant response
Summary of the method: as §2

[7] = tested on: johnsongrass (Sorghum halepense); experiment: Test B pre-/postemergence plant response
Summary of the method: as §2

[8] = tested on: downy bromegrass (Bromus tectorum); experiment: Test B pre-/postemergence plant response
Summary of the method: as §2

[9] = tested on: wheat (Triticum aestivum); experiment: Test B pre-/postemergence plant response
Summary of the method: as §2

[10] = 62 g ai/ha, postemergence, 0 is no effect, 100 is complete control, 13 to 15 days

O=C1CCCC(O)=C1C(=O)c1cnc(-c2ccccc2)n(C2CCCCC2)c1=O [Compound 128, 3-cyclohexyl-5-[(2-hydroxy-6-oxo-1-cyclohexen-1-yl)carbonyl]-2-phenyl-4(3H)-pyrimidinone] was tested, and the “Windgrass plant response rating (0 to 100 scale)” value [1, 10] was 65, the pest or weed control at 31 g/ha ([1]; Apera spica-venti, post-emergence, 360 h, Postemergence, 31 g ai/ha, 0 to 100 scale (0 no effect, 100 complete control), read-out: Plant response rating, Windgrass) was 50% and the pest or weed control at 125 g/ha ([1]; Apera spica-venti, post-emergence, 360 h, Postemergence, 125 g ai/ha, scale 0 to 100 (0 no effect, 100 complete control), read-out: Plant response rating, Windgrass) was 70%. The pest or weed control at 250 g/ha ([1]; Apera spica-venti, post-emergence, 360 h, Postemergence, 250 g ai/ha, scale 0 to 100 (0 no effect, 100 complete control), 13 to 15 days, read-out: Plant response rating, Windgrass) was 85%, the “Canarygrass plant response rating (0 to 100 scale)” value [2, 10] was 10 and the pest or weed control at 31 g/ha ([2]; Phalaris minor, post-emergence, 360 h, Postemergence, 31 g ai/ha, 0 to 100 scale (0 no effect, 100 complete control), read-out: Plant response rating, Canarygrass) was 10%. For the same compound, the pest or weed control at 125 g/ha ([2]; Phalaris minor, post-emergence, 360 h, Postemergence, 125 g ai/ha, scale 0 to 100 (0 no effect, 100 complete control), read-out: Plant response rating, Canarygrass) was 30%, the pest or weed control at 250 g/ha ([2]; Phalaris minor, post-emergence, 360 h, Postemergence, 250 g ai/ha, scale 0 to 100 (0 no effect, 100 complete control), 13 to 15 days, read-out: Plant response rating, Canarygrass) was 30% and the “Chickweed plant response rating (0 to 100 scale)” value [3, 10] was 90. The pest or weed control at 31 g/ha ([3]; Stellaria media, post-emergence, 360 h, Postemergence, 31 g ai/ha, 0 to 100 scale (0 no effect, 100 complete control), read-out: Plant response rating, Chickweed) was 90%, the pest or weed control at 125 g/ha ([3]; Stellaria media, post-emergence, 360 h, Postemergence, 125 g ai/ha, scale 0 to 100 (0 no effect, 100 complete control), read-out: Plant response rating, Chickweed) was 95% and the pest or weed control at 250 g/ha ([3]; Stellaria media, post-emergence, 360 h, Postemergence, 250 g ai/ha, scale 0 to 100 (0 no effect, 100 complete control), 13 to 15 days, read-out: Plant response rating, Chickweed) was 100%. For the same compound, the “Bermudagrass plant response rating (0 to 100 scale)” value [4, 10] was 85, the pest or weed control at 31 g/ha ([4]; Cynodon dactylon, post-emergence, Postemergence, 31 g ai/ha, 0 to 100 scale (0 no effect, 100 complete control), read-out: Plant response rating, Bermudagrass) was 75% and the pest or weed control at 125 g/ha ([4]; Cynodon dactylon, post-emergence, Postemergence, 125 g ai/ha, scale 0 to 100 (0 no effect, 100 complete control), read-out: Plant response rating, Bermudagrass) was 98%. The pest or weed control at 250 g/ha ([4]; Cynodon dactylon, post-emergence, Postemergence, 250 g ai/ha, scale 0 to 100 (0 no effect, 100 complete control), 13 to 15 days, read-out: Plant response rating, Bermudagrass) was 100%, the “Morningglory plant response rating (0 to 100 scale)” value [5, 10] was 80 and the pest or weed control at 31 g/ha ([5]; Ipomoea, post-emergence, Postemergence, 31 g ai/ha, 0 to 100 scale (0 no effect, 100 complete control), read-out: Plant response rating, Morningglory) was 80%. The pest or weed control at 125 g/ha ([5]; Ipomoea, post-emergence, Postemergence, 125 g ai/ha, scale 0 to 100 (0 no effect, 100 complete control), read-out: Plant response rating, Morningglory) was 90%, the pest or weed control at 250 g/ha ([5]; Ipomoea, post-emergence, Postemergence, 250 g ai/ha, scale 0 to 100 (0 no effect, 100 complete control), 13 to 15 days, read-out: Plant response rating, Morningglory) was 90% and the “Foxtail, Giant plant response rating (0 to 100 scale)” value [6, 10] was 95. For the same compound, the pest or weed control at 31 g/ha ([6]; Setaria faberi, post-emergence, Postemergence, 31 g ai/ha, 0 to 100 scale (0 no effect, 100 complete control), read-out: Plant response rating, Foxtail, Giant) was 95%, the pest or weed control at 125 g/ha ([6]; Setaria faberi, post-emergence, Postemergence, 125 g ai/ha, scale 0 to 100 (0 no effect, 100 complete control), read-out: Plant response rating, Foxtail, Giant) was 98% and the pest or weed control at 250 g/ha ([6]; Setaria faberi, post-emergence, Postemergence, 250 g ai/ha, scale 0 to 100 (0 no effect, 100 complete control), 13 to 15 days, read-out: Plant response rating, Foxtail, Giant) was 98%. The “Johnsongrass plant response rating (0 to 100 scale)” value [7, 10] was 70, the pest or weed control at 31 g/ha ([7]; Sorghum halepense, post-emergence, Postemergence, 31 g ai/ha, 0 to 100 scale (0 no effect, 100 complete control), read-out: Plant response rating, Johnsongrass) was 70% and the pest or weed control at 125 g/ha ([7]; Sorghum halepense, post-emergence, Postemergence, 125 g ai/ha, scale 0 to 100 (0 no effect, 100 complete control), read-out: Plant response rating, Johnsongrass) was 85%. For the same compound, the pest or weed control at 250 g/ha ([7]; Sorghum halepense, post-emergence, Postemergence, 250 g ai/ha, scale 0 to 100 (0 no effect, 100 complete control), 13 to 15 days, read-out: Plant response rating, Johnsongrass) was 85%, the “Bromegrass, Downy plant response rating (0 to 100 scale)” value [8, 10] was 35 and the pest or weed control at 31 g/ha ([8]; Bromus tectorum, post-emergence, Postemergence, 31 g ai/ha, 0 to 100 scale (0 no effect, 100 complete control), read-out: Plant response rating, Bromegrass, Downy) was 30%. For the same compound, the pest or weed control at 125 g/ha ([8]; Bromus tectorum, post-emergence, Postemergence, 125 g ai/ha, scale 0 to 100 (0 no effect, 100 complete control), read-out: Plant response rating, Bromegrass, Downy) was 40%, the pest or weed control at 250 g/ha ([8]; Bromus tectorum, post-emergence, Postemergence, 250 g ai/ha, scale 0 to 100 (0 no effect, 100 complete control), 13 to 15 days, read-out: Plant response rating, Bromegrass, Downy) was 50% and the “Wheat plant response rating (0 to 100 scale)” value [9, 10] was 0. It also gave a plant injury at 31 g/ha ([9]; Triticum aestivum, post-emergence, Postemergence, 31 g ai/ha, 0 to 100 scale (0 no effect, 100 complete control), read-out: Plant response rating, Wheat) of 0%, a plant injury at 125 g/ha ([9]; Triticum aestivum, post-emergence, Postemergence, 125 g ai/ha, scale 0 to 100 (0 no effect, 100 complete control), read-out: Plant response rating, Wheat) of 0% and a plant injury at 250 g/ha ([9]; Triticum aestivum, post-emergence, Postemergence, 250 g ai/ha, scale 0 to 100 (0 no effect, 100 complete control), 13 to 15 days, read-out: Plant response rating, Wheat) of 5%.
